# Assay results reported in US5244678A, “Pharmaceutical composition containing a local anesthetic and/or centrally acting analgesic encapsulated in liposomes” (Ire-Celltarg S.A., priority 1986, dated 1993).
# “Also recorded” adds a separate entry of the source.
# What was measured:
# motor fibers = conditions: bupivacaine used today in anesthesia; general knowledge; cited from earlier work
# [1] = Uptake by the nervous tissues after peridural injection; type: in vivo; conditions: rabbit, mean ± standard deviation, n=3
# Source text: Mean±standarddeviation; number in brackets=number of animals.
# [2] = Urinary excretion of radioactivity 2 hours after peridural injection; type: in vivo; conditions: rabbit, mean ± standard deviation, n=3
# Description: Radioactivity excreted in the urine (ID×10^2) 2 hours after the peridural injection of [^3 H]Ch-labeled SUV, of MLV which has integrated ^3 H-labeled bupivacaine, or of non-encapsulated bupivacaine. Mean±standard deviation; the number in brackets=the number of animals.
# [3] = Blood kinetics in whole blood after peridural injection in rabbits; type: in vivo; conditions: rabbit
# Description: Biodistribution and pharmacokinetics of the liposomes which have incorporated bupivacaine, administered peridurally
# The formation of MLVs takes place by adding 3 ml of 0.3M Tris-HCl buffer, pH 8, followed by 5 centrifugations at 5000 g in the same buffer.
# The results are expressed as a percentage of the injected dose (ID) in the whole blood.
# tail of rats = experiment: Analgesic effect: threshold of the pain induced by an electric shock to the tail of rats; type: in vivo; conditions: rat tail, point S2
# Description: The analgesic effect is measured by the increase in the threshold of the pain induced by an electric shock to the tail of rats.
# Lipid film: Egg Pc/Chol, 4:3-60 mg of lipids (equivalent to 43.26 mg of egg Pc and 16.74 mg of Chol)+5 mg of bupivacaine base in lyophilized, liposoluble form. Formation of the liposomes: Suspension of the lipid film in the form of multilamellar liposomes in a 0.3M Tris-HCl buffer, pH 8 (3 ml). The liposomal suspension is centrifuged, and the liposomal pellet is injected as it is (0.5 ml) under the skin, in the rat's tail at a point S2.
# The pain threshold is measured by electrical excitation at S2, and then at S1 (S1, situated 5 cm downstream from the injection point, serves for taking a reference with respect to the injection point, and also for measuring the possible diffusion of the product injected at S2).
# [4] = Biodistribution in the liver and heart 4 hours after peridural injection; type: in vivo; conditions: rabbit, mean ± standard deviation, n=3
# Description: 0.2 ml of the centrifugation pellet are administered peridurally to rabbits, under the same conditions as in Example 1.
# By way of control, 4.5 mg of bupivacaine for clinical use (Marcaine®-Astra-[…] strength hydrochloride solution) is administered under the same conditions with or without adrenaline, and with the addition of 0.01 mCi of [^3 H]bupivacaine, this combination being present in a total 0.2 ml of solution.
# Likewise, by way of control, SUVs without bupivacaine are administered in the course of this study, under the conditions stated in Example 1.
# The animals are sacrificed 120 and 240 minutes after the injection, and the organs and tissues are sampled under the same conditions as those of Example 1.
# Biodistribution of [^3 H]Ch SUV, of MLVS which have integrated [^3 H]bupivacaine, and of bupivacaine, in the liver and heart 4 hours after the peridural injection (ID×10^2).
structure (smiles),measurement,setting,value
"CCCCN1CCCCC1C(=O)Nc1c(C)cccc1C (stereo not drawn) [Bupivacaine, bupivacaine]",effect on sensory and motor fibers,motor fibers,"blocks the sensory fibers and not the motor fibers; also recorded: affects motor fibers to only a small extent, if at all"
same,Uptake by brachial plexus,[1]; 2 hrs,0.295 ± 0.048 ID in 1 g×10^3
same,Uptake by cauda equina,[1]; 2 hrs,0.485 ± 0.057 ID in 1 g×10^3
same,Uptake by lumbar marrow,[1]; 2 hrs,0.411 ± 0.094 ID in 1 g×10^3
same,Uptake by sciatic nerve,[1]; 2 hrs,0.281 ± 0.026 ID in 1 g×10^3
same,Uptake by brachial plexus,[1]; 4 hrs,1.136 ± 0.008 ID in 1 g×10^3
same,Uptake by cauda equina,[1]; 4 hrs,0.132 ± 0.035 ID in 1 g×10^3
same,Uptake by lumbar marrow,[1]; 4 hrs,0.169 ± 0.046 ID in 1 g×10^3
same,Uptake by nerve roots,[1]; 4 hrs,0.153 ± 0.023 ID in 1 g×10^3
same,Uptake by sciatic nerve,[1]; 4 hrs,0.132 ± 0.028 ID in 1 g×10^3
same,Radioactivity excreted in the urine,[2],11.633 ± 0.518 ID×10^2
same,highest blood level (blood peak),[3],1.4 % of the injected dose
same,time of rise of the pain threshold after injection,tail of rats,less than one hour
same,Biodistribution in the heart,[4],2.142 ± 0.301 ID×10^2
same,Biodistribution in the liver,[4],20.477 ± 1.458 ID×10^2
